# Measurements reported in patent US8062995B2, “Dioxazine-substituted arylamides” (Bayer CropScience AG, priority 2005, dated 2011).
# Key:
# [1] = logP determination by HPLC (reversed-phase C18), EEC Directive 79/831 Annex V.A8; type: physicochemical; settings: HPLC reversed-phase C18, 43° C., acidic range pH 2.7
# Myzus persicae = Myzus persicae test (ingestion of active compound preparation); type: in vivo
# Method: (§1) Myzus persicae Test Solvents: 1% of N-methylpyrrolidone (NMP) • 1% of diacetone alcohol Dye: brilliant sulphoflavin for staining the water To produce a suitable preparation of active compound, the active compound is mixed with the stated amounts of solvents and the concentrate is diluted with stained water to the desired concentration. The Myzus persicae are provided with an active compound preparation of the desired concentration for ingestion. After the desired period of time, the activity in % is determined. 100% means that all aphids have been killed; 0% means that none of the aphids have been killed.
# Aedes aegypti = Aedes aegypti test (larvae); type: in vivo
# Method: as §1, with “Aedes aegypti Test” for “Myzus persicae Test”, “The larvae (Aedes aegypti)” for “The Myzus persicae”, “are treated” for “are provided”, “desired concentration.” for “desired concentration for ingestion.”, “all of the larvae” for “all aphids”, “the larvae” for “the aphids”
# [2] = tested on: Diabrotica undecimpunctata; assay: Diabrotica undecimpunctata (DIABUN) test (eggs); type: in vivo
# Method: as §1, with “Diabrotica undecimpunctata (DIABUN)” for “Myzus persicae Test”, “eggs (Diabrotica undecimpunctata)” for “Myzus persicae”, “treated” for “provided”, “concentration.” for “concentration for ingestion.”, “animals” for “aphids”
# Heliothis virescens = Heliothis virescens test (eggs); type: in vivo
# Method: as §1, with “Heliothis virescens” for “Myzus persicae Test”, “eggs (Heliothis virescens)” for “Myzus persicae”, “treated” for “provided”, “concentration.” for “concentration for ingestion.”, “animals” for “aphids”
# [3] = tested on: larvae of the mustard beetle (Phaedon cochleariae); assay: Phaedon test (sprayed Chinese cabbage discs); type: in vivo; settings: for Kill rate after 7d in %: 100 g/ha
# Method in brief: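 Compound formulated in acetone/DMF with alkylaryl polyglycol ether emulsifier, diluted in emulsifier-containing water and sprayed onto Chinese cabbage (Brassica pekinensis) leaf discs. After drying, discs infested with Phaedon cochleariae larvae; % kill scored after set time (100% = all larvae dead, 0% = none).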
# [4] = tested on: caterpillars of the army worm (Spodoptera frugiperda); assay: Spodoptera frugiperda test (SPODFR spray treatment); type: in vivo; settings: for Kill rate after 7d in %: 100 g/ha, spray treatment
# Method in brief: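 Compound formulated in acetone/DMF with alkylaryl polyglycol ether emulsifier, diluted in emulsifier-containing water and sprayed on maize leaf discs; after drying, discs infested with Spodoptera frugiperda caterpillars. Mortality (%) scored after a set period, 100% meaning all caterpillars killed.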
# [5] = tested on: Spodoptera frugiperda larvae; assay: Spodoptera frugiperda test (treatment by watering); type: in vivo; settings: for Kill rate after 14d in %: 20 ppm, treatment by watering
# Method in brief: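 Compound formulated in dimethylformamide with alkylaryl polyglycol ether emulsifier and diluted with water to the desired concentration. Maize plants are watered with the preparation, then infested with Spodoptera frugiperda larvae. After the set period, % larval kill is scored (100% = all killed, 0% = none).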
# [6] = tested on: caterpillars of the cotton bollworm (Heliothis armigera); assay: Heliothis armigera test (leaf dip); type: in vivo
# Method in brief: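 Compound was formulated in dimethylformamide with alkylaryl polyglycol ether emulsifier and diluted in emulsifier-containing water. Soya bean leaves were dipped in the preparation and populated with Heliothis armigera caterpillars while still moist. Kill (%) was scored after the desired period.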
# [7] = tested on: green peach aphid (Myzus persicae); assay: Myzus test (MYZUPE spray treatment); type: in vivo; settings: for Kill rate after 5d in %: 100 g/ha, spray treatment
# Method in brief: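 Chinese cabbage leaf discs infested with all aphid stages sprayed with compound in acetone/DMF with alkylaryl polyglycol ether emulsifier, diluted in emulsifier-containing water to the desired concentration. After the set period, percent activity scored as aphids killed (100% = all dead, 0% = none).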
# [8] = tested on: caterpillars of the army worm (Spodoptera exigua); assay: Spodoptera exigua test (leaf dip); type: in vivo; settings: for Kill rate after 7d in %: 4 ppm
# Method in brief: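 Compound in DMF with alkylaryl polyglycol ether emulsifier, diluted in water to test concentration; cabbage leaves dipped and infested with Spodoptera exigua caterpillars while still moist. Kill (%) scored after a set period, 100% meaning all caterpillars dead.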
# [9] = tested on: Spodoptera exigua, resistant strain; assay: Spodoptera exigua test; resistant strain; type: in vivo
# Method in brief: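 Cabbage leaves dipped in compound preparation (DMF solvent, alkylaryl polyglycol ether emulsifier, diluted in emulsifier-containing water) and infested with caterpillars while still moist. After the set period, kill scored in %: 100% all caterpillars dead, 0% none dead.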
# [10] = tested on: caterpillars of the diamondback moth (Plutella xylostella); assay: Plutella test (leaf dip); type: in vivo
# Method in brief: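 Cabbage (Brassica oleracea) leaves dipped in compound formulated in dimethylformamide/alkylaryl polyglycol ether emulsifier diluted with emulsifier-containing water. Leaves infested with Plutella xylostella caterpillars while still moist. After a set period, kill % scored (100% = all caterpillars dead, 0% = none).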
# [11] = tested on: green peach aphid (Myzus persicae); assay: Myzus persicae test; systemic treatment; type: in vivo
# Method: Myzus persicae Test; Systemic Treatment Solvent: 7 parts by weight of dimethylformamide Emulsifier: 2 parts by weight of alkylaryl polyglycol ether To produce a suitable preparation of active compound, 1 part by weight of active compound is mixed with the stated amounts of solvent and emulsifier and the concentrate is diluted with water to the desired concentration. The active compound preparation is mixed with water. The stated concentration refers to the amount of active compound per volume unit of water (mg/l=ppm). The treated water is filled into vessels with a pea plant (Pisum sativum) which is then infected with the green peach aphid (Myzus persicae). After the desired period of time, the kill in % is determined. 100% means that all aphids have been killed; 0% means that none of the aphids have been killed.
# [12] = tested on: cotton aphid (Aphis gossypii); assay: Aphis gossypii test (leaf dip); type: in vivo; settings: for Kill rate after 6d in %: 100 ppm
# Method: Aphis gossypii Test Solvent: 7 parts by weight of dimethylformamide Emulsifier: 2 parts by weight of alkylaryl polyglycol ether To produce a suitable preparation of active compound, 1 part by weight of active compound is mixed with the stated amounts of solvent and emulsifier and the concentrate is diluted with emulsifier-containing water to the desired concentration. Cotton leaves (Gossypium hirsutum) which are heavily infested by the cotton aphid (Aphis gossypii) are treated by being dipped into the active compound preparation of the desired concentration. After the desired period of time, the kill in % is determined. 100% means that all aphids have been killed; 0% means that none of the aphids have been killed.
compound,measurement,setting,value
O=C(Nc1c(Cl)cc(Cl)cc1C1=NOCCO1)c1cc(Br)nn1-c1ncccc1Cl [Example I-1-8],logP,[1],3.09
same,activity in the Myzus persicae test (in words),Myzus persicae,good activity
same,Kill rate after 6-7d in %,"Myzus persicae; 30 ppm, 6-7 d, ingestion",100%
same,activity in the Aedes aegypti test (in words),Aedes aegypti,good activity
same,Kill rate after 2-4d in %,"Aedes aegypti; 30 ppm, 2-4 d, larvae",100%
same,activity in the Diabrotica undecimpunctata test (in words),[2],good activity
same,Kill rate after 2-5d in %,"[2]; 300 ppm, 2-5 d, eggs",100%
same,activity in the Heliothis virescens test (in words),Heliothis virescens,good activity
same,Kill rate after 6-7d in %,"Heliothis virescens; 100 ppm, 6-7 d, eggs",100%
same,activity in the Phaedon test (in words),[3],good activity
same,Kill rate after 7d in %,[3],100%
same,"activity in the Spodoptera frugiperda test, spray treatment (in words)",[4],good activity
same,Kill rate after 7d in %,[4],100%
same,"activity in the Spodoptera frugiperda test, watering (in words)",[5],good activity
same,Kill rate after 14d in %,[5],95%
same,activity in the Heliothis armigera test (in words),[6],good activity
same,Kill rate after 7d in %,[6]; 20 ppm,100%
Cc1cc(Cl)cc(C2=NOCCN2)c1NC(=O)c1cc(Br)nn1-c1ncccc1Cl [Example I-1-19],logP,[1],2.25
same,activity in the Phaedon test (in words),[3],good activity
same,Kill rate after 7d in %,[3],100%
same,"activity in the Myzus test, spray treatment (in words)",[7],good activity
same,Kill rate after 5d in %,[7],90%
same,"activity in the Spodoptera frugiperda test, spray treatment (in words)",[4],good activity
same,Kill rate after 7d in %,[4],100%
same,Kill rate after 14d in %,[5],95%
same,activity in the Spodoptera exigua test (in words),[8],good activity
same,Kill rate after 7d in %,[8],80%
same,activity in the Heliothis armigera test (in words),[6],good activity
same,Kill rate after 7d in %,[6]; 4 ppm,100%
same,"activity in the Spodoptera exigua test, resistant strain (in words)",[9],good activity
same,Kill rate after 7d in %,"[9]; 20 ppm, 7 d, resistant strain",100%
same,activity in the Plutella test (in words),[10],good activity
same,Kill rate after 7d in %,[10]; 0.8 ppm,100%
same,"activity in the Myzus persicae test, systemic treatment (in words)",[11],good activity
same,Kill rate after 6d in %,"[11]; 20 ppm, 6 d, systemic treatment",90%
same,activity in the Aphis gossypii test (in words),[12],good activity
same,Kill rate after 6d in %,[12],80%
Cc1cc(Cl)cc(C2=NOCCN2)c1NC(=O)c1cc(Cl)nn1-c1ncccc1Cl [Example I-1-20],logP,[1],2.25
same,activity in the Phaedon test (in words),[3],good activity
same,Kill rate after 7d in %,[3],100%
same,"activity in the Myzus test, spray treatment (in words)",[7],good activity
same,Kill rate after 5d in %,[7],100%
same,"activity in the Spodoptera frugiperda test, spray treatment (in words)",[4],good activity
same,Kill rate after 7d in %,[4],100%
same,Kill rate after 14d in %,[5],95%
same,activity in the Spodoptera exigua test (in words),[8],good activity
same,Kill rate after 7d in %,[8],100%
same,activity in the Heliothis armigera test (in words),[6],good activity
same,Kill rate after 7d in %,[6]; 4 ppm,100%
same,activity in the Plutella test (in words),[10],good activity
same,Kill rate after 7d in %,[10]; 4 ppm,100%
same,activity in the Aphis gossypii test (in words),[12],good activity
same,Kill rate after 6d in %,[12],80%
